Experiments:
[1] = Drug level in Tg2576 mouse brain at 200 µmol/kg, po after 3 hrs; conditions: read-out: Drug uptake
[2] = Drug level in Tg2576 mouse plasma at 200 µmol/kg, po after 3 hrs
[3] = Ratio of drug level in brain to plasma in Tg2576 mouse at 200 mg/kg, po after 3 hrs

Row | SMILES | concentration at 3 h [1] | concentration at 3 h [2] | Kp at 3 h [3]
1 | COc1ccc(CN([C@@H]2CCCCNC2=O)S(=O)(=O)c2ccc(Cl)cc2)cc1 | 2200 nM | 280 nM | 7
2 | CN(C)c1ccc(CN([C@@H]2CCCCNC2=O)S(=O)(=O)c2ccc(Cl)cc2)cc1 | 4200 nM | 1600 nM | 2.8

— ChEMBL document CHEMBL1140491, “Amino-caprolactam derivatives as gamma-secretase inhibitors” (Bioorg Med Chem Lett, 2007)
